Results as given in article PMC4669722, “Antitumour potential of BPT: a dual inhibitor of cdk4 and tubulin polymerization” (Cell Death & Disease, 2015).
pIC50: −log10 of the molar value.

Experiments:
NCI-H1299 cells = assay: Flow cytometric cell cycle analysis, NCI-H1299; type: cell-based, human; details: NCI-H1299, IC50 concentration, 24 h
Description: (§1) The untreated (control) and treated (with test compounds) cells were harvested by trypsinization, washed once with PBS and then fixed in 70% chilled (−20 °C) ethanol for minimum 1 h. After the fixation step, cells were centrifuged for 5 min at 3000 × g at room temperature, and the pellet was suspended in PBS containing 50 μg/ml propidium iodide (Sigma-Aldrich, Dorset, UK; cat. no. P-4170) and 0.5 mg/ml DNase-free ribonuclease (Sigma-Aldrich; cat. no. R-5503). The cells were stained for 1 h in the dark at 4 °C. Cell cycle analysis was performed on the Beckman Coulter (Epics Altra) fluorescence-activated cell sorter (Beckman Coulter UK Ltd, Buckinghamshire, UK). To gate all the events that represent single cells, and not cell doublets or cell clumps, the following analyses were performed on the samples. Cytograms of propidium iodide fluorescence peak signal versus integrated fluorescence or the linear signal were plotted. All data points on the straight line were isolated in a single gate and the gated data was further used for plotting a histogram that represents a complete cell cycle. The total number of events was not allowed to exceed 200 events per s. Data acquisition was stopped after a minimum of 10 000 events had been collected.

[1] = tested on: several human cancer cells; assay: Growth inhibition of several human cancer cells; type: cell-based
Description: (§2) All 10 human cancer cell lines were maintained at 37 °C in 5% CO2 in RPMI-1640 medium, supplemented with 10% foetal calf serum and 100 μg/ml normocin. The 10 cancer cell lines used for screening were all obtained from ATCC (Manassas, VA, USA); they were the NSCLC (a form of cancer that is resistant to chemotherapy) lines: NCI-H460 (pRb^+, p53^+), A549 (pRb^+, p53^+), Calu-1 (pRb^+, p53-null), NCI-H1299 (pRb^+, p53-null), NCI-H358 (pRb-null, p53-null); the colon cancer line LS174T (pRb^+, p53^+); the prostate cancer line PC-3 (pRb^+, p53-null); the pancreatic cancer line MiaPaca (pRb^+, p53-mutant). The genotypes within brackets indicate the status of the tumour suppressor proteins pRb and p53. The mouse embryonic normal hepatic cell line (BNL CL2) and its SV40 large T-antigen-transformed counterpart cell line (BNL SV A.8) were also purchased from ATCC. The large T-antigen inactivates the tumour suppressor proteins p53 and pRb. The detailed procedure of cell proliferation (MTT) assay and IC50 determination was described previously.[32]

MIAPaCa cells = assay: Western blot of cell cycle proteins in mutant p53 cells; type: cell-based, human; details: data not shown
Description: A549, LS174T and MiaPaCa cells were seeded in 25 cm^2 tissue culture flasks in the complete growth medium. […] Cells were harvested by trypsinization, washed in ice-cold PBS and then lysed in buffer (Sigma-Aldrich; cat. no. C-2978) containing protease inhibitor cocktail (Sigma-Aldrich; cat. no. P8340). The lysates were centrifuged at 14 000 r.p.m. (revolutions per minute) for 10 min at 4 °C and the total protein concentrations were estimated in the clear supernatants using the Bradford method. Equal amounts of protein (40 μg) were loaded and electrophoresed on 10% SDS-polyacrylamide gels and blotted on Immobilon-P Transfer Membrane (Millipore; cat. no.IPVH20200). The blots were probed with respective primary antibodies (at 4 °C, overnight) at the following dilutions: cdc2 (New England Biolabs, Hitchin, UK; cat. no. 9110) at 1 : 1000 to detect Cdk1; cyclin B1 (CRUK, London, UK; cat. no. V152) at 1 : 1500 dilution to detect cyclin B1; Pab 1801 (Santa Cruz Biotechnology, Heidelberg, Germany; cat. no. sc-98) at 1 : 500 dilution to detect p53; N-20 (Santa Cruz Biotechnology; cat. no. sc-469) at 1 : 500 dilution to detect p21; C-19 (Santa Cruz Biotechnology; cat. no. sc-528) at 1 : 250 dilution to detect p27; AC-40 (Sigma-Aldrich; cat. no. A4700) at 1 : 2000 dilution to detect actin. […]

MAPK1 = MAPK1 (Homo sapiens, UniProt P27361); assay: Kinase profiling (Millipore), MAPK1; type: biochemical
Sequence of MAPK1 (P27361 2-379 limits assumed): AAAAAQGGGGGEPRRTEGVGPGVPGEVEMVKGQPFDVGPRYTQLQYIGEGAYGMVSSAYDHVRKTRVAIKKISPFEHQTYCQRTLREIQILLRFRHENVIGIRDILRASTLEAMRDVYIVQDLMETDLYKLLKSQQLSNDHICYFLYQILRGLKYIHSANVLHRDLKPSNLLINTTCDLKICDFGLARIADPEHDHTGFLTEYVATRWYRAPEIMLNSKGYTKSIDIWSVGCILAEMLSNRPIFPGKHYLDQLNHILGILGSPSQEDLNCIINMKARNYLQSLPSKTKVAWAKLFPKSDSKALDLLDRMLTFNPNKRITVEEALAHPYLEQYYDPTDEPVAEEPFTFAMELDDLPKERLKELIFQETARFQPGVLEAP
Description: (§3) The in vitro kinase assays for testing against Cdk4-cyclin D1, Cdk2-cyclin A, Cdk1-cyclin B1 and Cdk9-cyclin T1 were performed in-house. The methodology and results have been reported previously.[20], [30], [31], [32], [45] The kinase profiling for 58 representative kinases was carrried out commercially at Millipore Bioscience Division, Livingston, UK.

[2] = tested on: NCI-H358 (NSCLC; p53 null, pRb null); assay: Cell proliferation (MTT) assay, NCI-H358; type: cell-based; details: Homo sapiens, 48 h, read-out: IC50 cell growth inhibition, NCI-H358
Description: as §2

Cdk5-p35 = Cdk5-p35 (Homo sapiens, UniProt Q00535); assay: Kinase profiling (Millipore), Cdk5-p35; type: biochemical
Sequence of Cdk5-p35 (Q00535 whole entry): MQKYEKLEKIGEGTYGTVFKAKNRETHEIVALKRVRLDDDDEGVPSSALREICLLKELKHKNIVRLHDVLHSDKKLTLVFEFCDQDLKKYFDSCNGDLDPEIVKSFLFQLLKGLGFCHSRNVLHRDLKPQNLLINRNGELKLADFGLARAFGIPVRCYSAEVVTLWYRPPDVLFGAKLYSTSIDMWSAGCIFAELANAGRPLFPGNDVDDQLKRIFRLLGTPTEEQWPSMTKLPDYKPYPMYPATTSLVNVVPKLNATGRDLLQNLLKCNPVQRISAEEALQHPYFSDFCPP
Sequence of Cdk5-p35 (Q15078 whole entry partner): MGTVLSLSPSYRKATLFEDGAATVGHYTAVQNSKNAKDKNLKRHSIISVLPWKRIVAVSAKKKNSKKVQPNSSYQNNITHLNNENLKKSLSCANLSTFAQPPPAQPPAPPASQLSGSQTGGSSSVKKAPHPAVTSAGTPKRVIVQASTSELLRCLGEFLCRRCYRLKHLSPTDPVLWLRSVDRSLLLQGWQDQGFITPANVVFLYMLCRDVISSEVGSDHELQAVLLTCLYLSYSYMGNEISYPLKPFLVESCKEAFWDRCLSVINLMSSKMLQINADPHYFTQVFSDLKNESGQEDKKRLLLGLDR
Description: as §3

Cdk1-cyclin B1 = Cdk1-cyclin B1 (Homo sapiens, UniProt P06493); assay: In vitro kinase assay, Cdk1-cyclin B1 (in-house); type: biochemical; details: three independent experiments; read-out: IC50 (mean±S.D.), Cdk1-cyclin B1
Sequence of Cdk1-cyclin B1 (P06493 whole entry): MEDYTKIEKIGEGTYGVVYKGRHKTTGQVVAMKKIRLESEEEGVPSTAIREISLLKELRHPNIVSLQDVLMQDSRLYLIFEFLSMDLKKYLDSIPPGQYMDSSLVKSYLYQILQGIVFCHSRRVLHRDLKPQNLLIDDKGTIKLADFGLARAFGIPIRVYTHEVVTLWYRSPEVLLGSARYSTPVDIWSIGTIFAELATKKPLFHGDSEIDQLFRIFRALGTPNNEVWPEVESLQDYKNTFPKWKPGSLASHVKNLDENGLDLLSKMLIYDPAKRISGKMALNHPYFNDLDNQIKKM
Sequence of Cdk1-cyclin B1 (P14635 whole entry partner): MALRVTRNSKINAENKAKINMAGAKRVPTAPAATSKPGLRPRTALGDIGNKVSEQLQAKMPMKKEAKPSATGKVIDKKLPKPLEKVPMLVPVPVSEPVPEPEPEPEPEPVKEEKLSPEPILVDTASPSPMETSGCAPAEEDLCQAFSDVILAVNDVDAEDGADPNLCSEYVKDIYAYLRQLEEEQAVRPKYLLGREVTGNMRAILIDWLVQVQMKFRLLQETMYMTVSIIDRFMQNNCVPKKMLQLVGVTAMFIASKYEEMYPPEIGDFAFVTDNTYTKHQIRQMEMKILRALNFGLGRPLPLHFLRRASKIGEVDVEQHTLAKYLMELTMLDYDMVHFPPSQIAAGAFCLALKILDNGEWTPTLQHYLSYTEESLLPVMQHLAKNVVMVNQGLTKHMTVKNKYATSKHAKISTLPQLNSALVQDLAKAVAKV
Description: as §3

HCT-116 tumours = assay: HCT-116 xenograft efficacy in SCID mice; type: in vivo; details: 100 mpk intraperitoneal, 9 days, versus vehicle, P<0.05
Description: A group of 60 SCID (SCID strain-CBySmn.CB17-Prkdc^scid/J; The Jackson Laboratory, Bar harbor, ME, USA; Stock no. 001803) male mice weighing 18–25 g and 6–8 weeks old were used for the studies. Human colon carcinoma, HCT-116 (ATCC; cat. no. CCL-247) cells were grown in McCoy's 5A medium supplemented with 10% FBS (Sigma-Aldrich). The cultured cells were injected subcutaneously into the dorsal side of SCID mice at the dose of 6.6 × 10^6 cells in 0.2 ml of suspension. When the tumour growth reached to about 4–6 mm in diameter (over about 5 days), the animals were randomly divided into eight groups, each containing seven mice. The treatments were continued for 9 consecutive days intraperitoneally. Flavopiridol (2.5 mpk) was used as a positive control in this study. Tumour size was recorded at 2–5 day intervals. Tumour weight (mg) was estimated according to the formula for a prolate ellipsoid: (length (mm) × width (mm)^2) × 0.5) assuming specific gravity to be one and π to be 3. Tumour growth in compound treated animals is calculated as T/C (treated/control) × 100% and growth inhibition percent (% GI) was (100−% T/C).[48], [49], [50]

Cdk7-cyclin H = Cdk7-cyclin H (Homo sapiens, UniProt P50613); assay: Kinase profiling (Millipore), Cdk7-cyclin H; type: biochemical
Sequence of Cdk7-cyclin H (P50613 whole entry): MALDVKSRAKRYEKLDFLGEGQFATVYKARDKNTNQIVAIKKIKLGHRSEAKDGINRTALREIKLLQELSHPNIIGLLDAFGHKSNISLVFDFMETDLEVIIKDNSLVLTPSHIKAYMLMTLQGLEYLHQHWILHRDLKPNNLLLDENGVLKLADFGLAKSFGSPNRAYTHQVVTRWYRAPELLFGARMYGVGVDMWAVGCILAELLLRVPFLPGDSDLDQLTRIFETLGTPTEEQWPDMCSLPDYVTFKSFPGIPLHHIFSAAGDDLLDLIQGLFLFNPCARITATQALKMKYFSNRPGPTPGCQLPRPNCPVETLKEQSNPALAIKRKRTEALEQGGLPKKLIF
Sequence of Cdk7-cyclin H (P51946 whole entry partner): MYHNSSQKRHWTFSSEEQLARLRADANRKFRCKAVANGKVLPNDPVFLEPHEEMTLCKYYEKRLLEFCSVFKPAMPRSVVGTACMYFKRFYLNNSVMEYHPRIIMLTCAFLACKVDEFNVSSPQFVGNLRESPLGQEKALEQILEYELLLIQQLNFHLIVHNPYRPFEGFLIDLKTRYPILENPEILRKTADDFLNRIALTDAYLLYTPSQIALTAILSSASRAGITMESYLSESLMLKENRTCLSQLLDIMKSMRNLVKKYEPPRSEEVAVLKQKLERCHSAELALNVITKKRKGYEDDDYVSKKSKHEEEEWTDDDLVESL
Sequence of Cdk7-cyclin H (P51948 whole entry partner): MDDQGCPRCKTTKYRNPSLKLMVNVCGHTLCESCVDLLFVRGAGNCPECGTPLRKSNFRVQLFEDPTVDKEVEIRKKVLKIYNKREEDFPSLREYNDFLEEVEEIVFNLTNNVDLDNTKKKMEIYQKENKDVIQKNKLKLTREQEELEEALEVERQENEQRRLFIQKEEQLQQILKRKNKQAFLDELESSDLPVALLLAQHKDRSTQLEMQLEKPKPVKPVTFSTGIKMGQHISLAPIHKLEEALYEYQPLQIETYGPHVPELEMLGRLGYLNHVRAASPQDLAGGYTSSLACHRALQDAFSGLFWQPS
Description: as §3

NCI-H358 cells = assay: Flow cytometric cell cycle analysis, synchronized NCI-H358; type: cell-based, human; details: NCI-H358 after nocodazole block, released in presence of BPT, within 12 h
Description: as §1

O=C(c1ccccc1-c1ccccc1)N1CCc2c([nH]c3ccccc23)C1 [BPT, 2-(biphenyl-2-carbonyl)-2,3,4,9-tetrahydro-1H-pyrido[3,4-b]indole]
cells in G2/M (NCI-H1299 cells): 50% | pIC50 [1]: > 6.00 | cyclin B1 and Cdk1 levels (MIAPaCa cells): elevated | p53, p21 and p27 levels (MIAPaCa cells): remained unchanged | pIC50 (MAPK1): < 5.00 | pIC50 [2]: 6.17 | pIC50 (Cdk5-p35): < 5.00 | pIC50 (Cdk1-cyclin B1): < 3.30 | tumour growth inhibition (HCT-116 tumours): ~ 80% | pIC50 (Cdk7-cyclin H): < 5.00 | G0/G1- and S-phase cells entering the G2/M phase (NCI-H358 cells): > 50%
